Laboratory results: patent US8961933B2, “Process for the preparation of aqueous solutions of hyperpolarized molecules” (Bracco Imaging S.p.A., priority 2008, dated 2015)

Columns and labels:
Solubility in water = assay type: physicochemical; conditions: compared with alkyne A
Source text: The symmetrical alkyne A, whose formula is reported below, was synthesized by transesterification of the acetylene bis-carboxylic acid bismethyl ester with diethyleneglycol monomethyl ether, in the presence of H2SO4 as catalyst.

[1] = Phase-transfer extraction of the hyperpolarized product into water: 13C signal enhancement and amount transferred; assay type: physicochemical
Method: After the field cycling application, the tube was quickly opened and 0.4 mL of degassed D2O were added; the tube was shaken vigorously for three seconds and then let stand for five seconds, during which phase separation occurred. The water solution was taken by a syringe and transferred into a tube for NMR acquisition.

In the case of `COCCOCCOC(=O)/C=C\C(=O)OCCOCCOC` [B], the solubility in water (Solubility in water) is reported as “higher than that of the alkyne A” and the “quantity transferred into the water phase” value ([1]; CDCl3/acetone-d6 (6:1) versus D2O, equal volumes) is reported as “about 10 % of the total”.

In the case of `O=C(O)CCC(=O)O` [succinic acid], the “transfer to the water phase” value ([1]; after hydrolysis with 0.25 M NaOH in D2O, CDCl3/acetone-d6 6:1) is reported as “All the succinic acid was transferred to the water phase”.
